Values joined by “and” are separate entries in the source; they are usually repeats but may differ in a detail not shown here. Identical values can stand only once. Like-named read-outs stand apart in the source and are kept apart here.
Legend:
DNA gyrase from E. coli = target: T1, DNA gyrase from E. coli (Escherichia coli, UniProt P0AES6); assay: supercoiling HTS plate assay; assay type: biochemical
T1 construct: purchased Inspiralis
Outline: (§1)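 E. coli gyrase tested by supercoiling and topo IV by relaxation in high-throughput plate format. IC50 from seven inhibitor concentrations; mean of three independent measurements.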

E. faecium ATCC 700221 = assay: MIC broth microdilution (CLSI); assay type: cell-based; conditions: Enterococcus faecium, ATCC700221; read-out: MIC
[1] = test system: Enterobacter cloacae spp. cloacae ATCC 13047; assay: MIC broth microdilution (CLSI); assay type: cell-based; conditions: Enterobacter cloacae, ATCC13047; read-out: MIC
Outline: (§2)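 Using standard CLSI methodology, triplicate wells seeded at 5 × 10^4 cells in 100 μL cation-adjusted MHBII are incubated 18 h at 37 °C. The MIC corresponds to the drug concentration inhibiting culture growth as judged by OD600.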

E. coli ATCC 25922 = assay: MIC broth microdilution (CLSI); assay type: cell-based; conditions: Escherichia coli, ATCC25922; read-out: MIC
Outline: as §2

P. aeruginosa ATCC 27853 = assay: MIC broth microdilution (CLSI); assay type: cell-based; conditions: Pseudomonas aeruginosa, ATCC27853; read-out: MIC
Outline: as §2

[2] = test system: S. aureus (VISA) ATCC 700699; assay: MIC broth microdilution (CLSI); assay type: cell-based; conditions: Staphylococcus aureus; read-out: MIC
Outline: as §2

[3] = test system: S. aureus (MRSA) ATCC 43300; assay: MIC broth microdilution (CLSI); assay type: cell-based; conditions: Staphylococcus aureus
Outline: as §2

K. pneumoniae ATCC 10031 = assay: MIC broth microdilution (CLSI); assay type: cell-based
Outline: as §2

[4] = test system: Enterococcus faecalis ATCC 29212; assay: MIC broth microdilution (CLSI); assay type: cell-based, E. faecalis; conditions: Enterococcus faecalis, ATCC29212; read-out: MIC
topo IV from E. coli = target: T2, topo IV from E. coli (Escherichia coli, UniProt P20083); assay: relaxation HTS plate assay; assay type: biochemical; conditions: read-out: IC50
T2 construct: purchased Inspiralis
T2 sequence (P0AFI2 whole entry): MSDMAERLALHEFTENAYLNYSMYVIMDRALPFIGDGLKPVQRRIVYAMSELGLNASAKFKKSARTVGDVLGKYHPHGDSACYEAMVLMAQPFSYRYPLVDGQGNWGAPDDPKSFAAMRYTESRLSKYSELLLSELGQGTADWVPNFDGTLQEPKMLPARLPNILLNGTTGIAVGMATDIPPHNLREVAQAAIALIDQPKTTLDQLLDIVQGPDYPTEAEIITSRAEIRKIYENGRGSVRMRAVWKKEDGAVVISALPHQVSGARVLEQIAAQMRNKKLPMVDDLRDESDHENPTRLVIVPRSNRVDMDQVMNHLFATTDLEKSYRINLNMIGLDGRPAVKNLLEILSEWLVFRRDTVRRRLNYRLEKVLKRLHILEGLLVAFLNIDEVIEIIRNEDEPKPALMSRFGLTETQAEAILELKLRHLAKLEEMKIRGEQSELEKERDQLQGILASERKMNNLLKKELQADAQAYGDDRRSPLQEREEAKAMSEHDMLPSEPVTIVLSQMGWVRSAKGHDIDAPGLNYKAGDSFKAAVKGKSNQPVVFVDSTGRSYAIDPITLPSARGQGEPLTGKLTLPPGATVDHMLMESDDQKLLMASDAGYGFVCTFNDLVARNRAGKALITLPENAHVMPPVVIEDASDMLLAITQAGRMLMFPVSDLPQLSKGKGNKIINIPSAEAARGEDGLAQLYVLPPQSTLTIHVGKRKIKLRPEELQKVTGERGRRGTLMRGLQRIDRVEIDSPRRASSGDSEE
T2 sequence (P20083 whole entry): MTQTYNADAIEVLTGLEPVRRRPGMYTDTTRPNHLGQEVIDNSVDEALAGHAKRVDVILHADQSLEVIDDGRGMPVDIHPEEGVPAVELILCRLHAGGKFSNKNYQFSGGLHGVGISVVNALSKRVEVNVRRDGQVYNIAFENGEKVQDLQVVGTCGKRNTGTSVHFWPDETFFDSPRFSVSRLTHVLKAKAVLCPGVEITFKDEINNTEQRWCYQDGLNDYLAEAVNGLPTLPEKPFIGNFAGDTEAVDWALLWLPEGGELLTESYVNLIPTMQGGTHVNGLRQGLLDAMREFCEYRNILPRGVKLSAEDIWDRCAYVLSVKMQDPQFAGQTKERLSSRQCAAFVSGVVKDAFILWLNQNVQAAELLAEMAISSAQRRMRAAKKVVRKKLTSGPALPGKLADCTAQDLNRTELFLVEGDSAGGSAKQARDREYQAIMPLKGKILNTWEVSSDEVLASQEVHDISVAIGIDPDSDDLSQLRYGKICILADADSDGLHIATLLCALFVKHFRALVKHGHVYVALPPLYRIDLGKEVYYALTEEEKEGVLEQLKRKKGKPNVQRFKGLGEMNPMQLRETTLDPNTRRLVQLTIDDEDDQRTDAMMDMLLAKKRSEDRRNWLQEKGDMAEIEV
Outline: as §1

S. aureus ATCC 29213 = assay: MIC broth microdilution (CLSI); assay type: cell-based; conditions: Staphylococcus aureus, ATCC29213
Outline: (§3)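 Cation-adjusted Mueller Hinton broth 2 microdilution, 5 × 10^4 cells per well in 100 μL, three parallel replicates, plates bagged to limit evaporation; growth read as OD600 after incubation.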

A. baumannii ATCC 17978 = assay: MIC broth microdilution (CLSI); assay type: cell-based; conditions: Acinetobacter baumannii, ATCC17978
Outline: as §3

[5] = read-out: MIC [µg/mL](S. aureus MRSA ATCC4330)
[6] = Klebsiella pneumoniae, ATCC10031, read-out: MIC
[7] = read-out: MIC [µg/mL](S. aureus ATCC 29213)
[8] = read-out: MIC [µg/mL] (A. baumannii ATCC 17978)

| Structure (SMILES) | IC50 (DNA gyrase from E. coli; read-out: IC50) [nM] | MIC (E. faecium ATCC 700221) [µg/mL] | MIC [1] [µg/mL] | MIC (E. coli ATCC 25922) [µg/mL] | MIC (P. aeruginosa ATCC 27853) [µg/mL] | MIC [2] [µg/mL] | MIC ([3]; read-out: MIC) [µg/mL] | MIC [3, 5] [µg/mL] | MIC (K. pneumoniae ATCC 10031; [6]) [µg/mL] | MIC [4] [µg/mL] | IC50 (topo IV from E. coli) | MIC (S. aureus ATCC 29213; read-out: MIC) [µg/mL] | MIC (S. aureus ATCC 29213; [7]) [µg/mL] | MIC (A. baumannii ATCC 17978; read-out: MIC) [µg/mL] | MIC (A. baumannii ATCC 17978; [8]) [µg/mL] | IC50 (DNA gyrase from E. coli; IC50 [nM] E. coli DNA gyrase) [nM] | MIC (K. pneumoniae ATCC 10031) [µg/mL] | IC50 (DNA gyrase from E. coli; IC50) [nM] |
| --- | --- | --- | --- | --- | --- | --- | --- | --- | --- | --- | --- | --- | --- | --- | --- | --- | --- | --- |
| Cc1[nH]c(C(=O)Nc2nc3c(N4CCOCC4C)cc(C(=O)O)cc3s2)c(Cl)c1Cl (stereo not drawn) [7b, 2-(3,4-Dichloro-5-methyl-1H-pyrrole-2-carboxamido)-4-(3-methylmorpholino)benzo[d]thiazole-6-carboxylic Acid] | < 10 | < 0.0312 | 32 | 8 | 8 | < 0.0312 | < 0.0312 | < 0.0312 | 2 | < 0.0312 | 78 ± 4 nM | 0.125 | 0.125 | 4 | 4 |  |  |  |
| Cc1[nH]c(C(=O)Nc2nc3c(N4CCOC(C)C4)cc(C(=O)O)cc3s2)c(Cl)c1Cl (stereo not drawn) [7e, 2-(3,4-Dichloro-5-methyl-1H-pyrrole-2-carboxamido)-4-(2-methylmorpholino)benzo[d]thiazole-6-carboxylic Acid] | < 10 | < 0.0312 | > 64 | 8 | 16 | < 0.0312 | 0.0625 | 0.0625 | 2 | < 0.0312 | 91 ± 3 nM | 0.0625 | 0.0625 | 8 | 8 |  |  |  |
| COCC1CCCN1c1cc(C(=O)O)cc2sc(NC(=O)c3[nH]c(C)c(Cl)c3Cl)nc12 (stereo not drawn) [7n, 2-(3,4-Dichloro-5-methyl-1H-pyrrole-2-carboxamido)-4-(2-(methoxymethyl)pyrrolidin-1-yl)benzo[d]thiazole-6-carboxylic Acid] |  | < 0.0312 | > 64 | 8 | 8 | 0.0625 | 0.0625 | 0.0625 | 8 | < 0.0312 | 210 ± 7 nM | 0.0625 | 0.0625 | 8 | 8 | 14 ± 6 |  |  |
| Cc1[nH]c(C(=O)Nc2nc3c(N4CCOCC4)cc(C(=O)O)cc3s2)cc1Cl [16a, 2-(4-Chloro-5-methyl-1H-pyrrole-2-carboxamido)-4-morpholinobenzo[d]thiazole-6-carboxylic Acid] |  | 1 | > 64 | > 64 | 64 | 0.5 | 2 | 2 | 2 | 1 | < 100 nM and 38 nM | 8 | 8 | > 64 | > 64 | 13 ± 5 | 2 |  |
| Cc1[nH]c(C(=O)Nc2nc3c(N4CC(C)OC(C)C4)cc(C(=O)O)cc3s2)c(Cl)c1Cl (stereo not drawn) [7f, 2-(3,4-Dichloro-5-methyl-1H-pyrrole-2-carboxamido)-4-(2,6-dimethylmorpholino)benzo[d]thiazole-6-carboxylic Acid] | < 10 | < 0.0312 | > 64 | 8 | 8 | < 0.0312 | < 0.0312 | < 0.0312 | 8 | < 0.0312 | 82 ± 29 nM | < 0.0312 | < 0.0312 | 1 | 1 |  |  |  |
| Cc1[nH]c(C(=O)Nc2nc3c(N4CCOC[C@H]4C)cc(C(=O)O)cc3s2)c(Cl)c1Cl [7c, (R)-2-(3,4-Dichloro-5-methyl-1H-pyrrole-2-carboxamido)-4-(3-methylmorpholino)benzo[d]thiazole-6-carboxylic Acid] | 17 ± 8 | < 0.0312 | > 64 | 8 | 8 | 0.0625 | 0.125 | 0.125 | 1 | < 0.0312 | 60 ± 36 nM | 0.0625 | 0.0625 | 8 | 8 | 30 ± 9 |  |  |
| Cc1[nH]c(C(=O)Nc2nc3c(N4C[C@H]5CC[C@@H](C4)O5)cc(C(=O)O)cc3s2)c(Cl)c1Cl [7g, 4-((1R,5S)-8-Oxa-3-azabicyclo[3.2.1]octan-3-yl)-2-(3,4-dichloro-5-methyl-1H-pyrrole-2-carboxamido)benzo[d]thiazole-6-carboxylic Acid] | < 10 | < 0.0312 | 16 | 2 | 2 | < 0.0312 | < 0.0312 | < 0.0312 | 2 | < 0.0312 | 16 ± 8 nM | < 0.0312 | < 0.0312 | 1 | 1 |  |  |  |
| Cc1[nH]c(C(=O)Nc2nc3c(N4CCOC[C@@H]4C)cc(C(=O)O)cc3s2)c(Cl)c1Cl [7d, (S)-2-(3,4-Dichloro-5-methyl-1H-pyrrole-2-carboxamido)-4-(3-methylmorpholino)benzo[d]thiazole-6-carboxylic Acid] |  | < 0.0312 | > 64 | 8 | 8 | 0.0625 | 0.125 | 0.125 | 2 | < 0.0312 | 95 ± 4 nM | 0.125 | 0.125 | 8 | 8 | 23 |  | 18 ± 7 |
| COC[C@@H]1CCCN1c1cc(C(=O)O)cc2sc(NC(=O)c3[nH]c(C)c(Cl)c3Cl)nc12 [7o, (S)-2-(3,4-Dichloro-5-methyl-1H-pyrrole-2-carboxamido)-4-(2-(methoxymethyl)pyrrolidin-1-yl)benzo[d]thiazole-6-carboxylic Acid] |  | < 0.0312 | > 64 | 16 | 16 | 0.0625 | 0.0625 | 0.0625 | 16 | < 0.0312 | 280 ± 14 nM | 0.0625 | 0.0625 | 16 | 16 | 25 |  |  |

— publication PMC10041525, “New Dual Inhibitors of Bacterial Topoisomerases with Broad-Spectrum Antibacterial Activity and In Vivo Efficacy against Vancomycin-Intermediate Staphylococcus aureus” (Journal of Medicinal Chemistry, 2023)
